# Patent US5134142A, “Pyrazole derivatives, and pharmaceutical composition comprising the same” (Fujisawa Pharmaceutical Co., Ltd., priority 1989, dated 1992)
# Tests used:
# [1] = system: adjuvant arthritis in rats; assay: Effect on adjuvant arthritis in rats (antiinflammatory activity); format: in vivo, female Sprague-Dawley rats; settings: Rattus norvegicus, po, 552 h, orally once a day for 23 days, read-out: Inhibition of secondary lesion (uninjected paw)
# [2] = system: inflammatory hyperalgesia induced by brewer's yeast in rats; assay: Inflammatory hyperalgesia induced by brewer's yeast in rats (analgesic activity); format: in vivo, male Sprague Dawley rats; settings: oral, pain threshold 3 hours after yeast injection
# Method: Inflammatory hyperalgesia induced by brewer's yeast in rats : (i) Test Method : Ten male Sprague Dawley rats were used per group. 0.1 ml of 5% brewer's yeast suspended in 0.5% methylcellulose was injected into the right hind paw. The pain threshold was determined 3 hours after yeast injection, by applying pressure to the foot and reading the pressure at which the rat withdrew the foot. The drugs were given orally 2 hours after yeast injection. The pain threshold in the treated animals was compared with that in the control animals.
# [3] = system: collagen induced arthritis in mice; assay: Effect on collagen induced arthritis in mice (anti-rheumatic activity); format: in vivo, male DBA/1 mice; settings: 10 mg/kg, orally once a day for 3 weeks from 10 day after challenge
# Method: Effect on collagen induced arthritis in mice : (i) Test Method : Eight male DBA/1 mice were used per group. Type II bovine collagen was solublized in 0.1M acetic acid and emulsified in complete Freund's adjuvant (CFA . Mice were primed with 0.2 mg of Type II collagen in CFA intradermally at the base of the tail. Mice were challenged after 21 day with the same procedure. From 10 day after challenge, drug was administered orally once a day for 3 weeks and mice were inspected weekly for visual signs of arthritis. An arthritis index was used to grade limb 0-3, representing joint swelling and erythema (Grade 1), visible joint disorder (Grade 2 and detectable joint ankylosis (Grade 3).
# [4] = system: Delayed Type Hypersensitivity (DTH) response to bovine type II collagen; assay: Effect on Delayed Type Hypersensitivity (DTH) response to bovine type II collagen; format: in vivo, male DBA/1 mice; settings: oral, 24 hours after challenge, mice
# [5] = system: platelet aggregation induced by collagen; assay: Effect on platelet aggregation induced by collagen (antithrombotic activity); format: cell-based; settings: human platelet rich plasma, collagen 0.5 μg/ml, 37° C
# Method: Effect on platelet aggregation induced by collagen :
# Platelet rich plasma (PRP) which contains 3×10^8 platelets/ml was prepared from human blood. To the 245 μl of PRP, 5 μl of drug solution* was added, and then stirred for 2 min at 37° C. To the solution 5 μl of collagen (0.5 μg/ml) was added as an aggregation inducer. Aggregation was measured by using an aggregometer (NKK HEMA-TRACER 1). Activities of inhibitors (test compounds) were expressed as IC50 values i.e. doses required to inhibit the platelet aggregation responses by 50%.
# Drug solution* - - - Test compounds were dissolved in dimethylsulfoxide.
compound,measurement,setting,value
"CS(=O)(=O)c1ccc(-c2cc(C(F)(F)F)nn2-c2ccc(F)cc2)cc1 [11-3), 1-(4-Fluorophenyl)-5-[4-(methylsulfonyl)phenyl]-3-(trifluoromethyl)pyrazole]",inhibition in vivo at 10 mg/kg,[1],100%
same,Relative potency (Control = 1.0),[2]; 32 mg/kg,1.35
same,Inhibition of arthritis index,[3],91.7%
"CSc1ccc(-c2cc(C#N)nn2-c2ccc(F)cc2)cc1 [15-2), 1-(4-Fluorophenyl)-5-[4-(methylthio)phenyl]pyrazole-3-carbonitrile]",per cent inhibition of DTH response compared with vehicle control,[4]; 0.32 mg/kg,55.4%
same,per cent inhibition of DTH response compared with vehicle control,[4]; 1.0 mg/kg,70.9%
same,per cent inhibition of DTH response compared with vehicle control,[4]; 3.2 mg/kg,69.6%
"CS(=O)(=O)c1ccc(-c2cc(C#N)nn2-c2ccc(F)cc2F)cc1 [15-6), 1-(2,4-Difluorophenyl)-5-[4-(methylsulfonyl)phenyl]pyrazole-3-carbonitrile]",inhibition in vivo at 3.2 mg/kg,[1],94.3%
same,Inhibition of arthritis index,[3],98.9%
"CS(=O)(=O)c1ccc(-c2ccnn2-c2ccc(F)cc2)cc1 [17-1), 1-(4-Fluorophenyl)-5-[4-(methylsulfonyl)phenyl]pyrazole]",inhibition in vivo at 3.2 mg/kg,[1],80.6%
"C[S+]([O-])c1ccc(-c2cc(C#N)nn2-c2ccc(F)cc2F)cc1 (centres unmarked) [33-2), 1-(2,4-Difluorophenyl)-5-[4-(methylsulfinyl)phenyl]pyrazole-3-carbonitrile]",inhibition in vivo at 3.2 mg/kg,[1],87.1%
same,Inhibition of arthritis index,[3],92.4%
"CCNc1ccc(-n2nc(C#N)cc2-c2ccc(S(C)(=O)=O)cc2)cc1 [37-2), 1-[4-(Ethylamino)phenyl]-5-[4-(methylsulfonyl)phenyl]pyrazole-3-carbonitrile]",inhibition in vivo at 3.2 mg/kg,[1],81.7%
"CNc1ccc(-n2nc(C(F)(F)F)cc2-c2ccc(S(C)(=O)=O)cc2)cc1.Cl [45-8), 1-[4-(Methylamino)phenyl]-5-[4-(methylsulfonyl)-phenyl]-3-(trifluoromethyl)pyrazole hydrochloride]",inhibition in vivo at 3.2 mg/kg,[1],80.8%
same,Inhibition of arthritis index,[3],83.5%
"CS(=O)(=O)c1ccc(-c2cc(C#N)nn2-c2ccc(F)cc2)cc1 [Example 6, 1-(4-fluorophenyl)-5-[4-(methylsulfonyl)phenyl]pyrazole-3-carbonitrile]",inhibition in vivo at 10 mg/kg,[1],95.6%
same,Relative potency (Control = 1.0),[2]; 32 mg/kg,1.34
same,Inhibition of arthritis index,[3],78.6%
same,IC50,[5],5.3 µM
same,per cent inhibition of DTH response compared with vehicle control,[4]; 0.32 mg/kg,53.4%
same,per cent inhibition of DTH response compared with vehicle control,[4]; 1.0 mg/kg,61.5%
same,per cent inhibition of DTH response compared with vehicle control,[4]; 3.2 mg/kg,74.3%
"C[S+]([O-])c1ccc(-c2cc(C#N)nn2-c2ccc(F)cc2)cc1 (centres unmarked) [Example 24, 1-(4-fluorophenyl)-5-[4-(methylsulfinyl)phenyl]pyrazole-3-carbonitrile]",inhibition in vivo at 3.2 mg/kg,[1],80.6%
same,Relative potency (Control = 1.0),[2]; 10 mg/kg,1.44
same,Inhibition of arthritis index,[3],90.5%
same,per cent inhibition of DTH response compared with vehicle control,[4]; 0.32 mg/kg,45.9%
same,per cent inhibition of DTH response compared with vehicle control,[4]; 1.0 mg/kg,66.9%
same,per cent inhibition of DTH response compared with vehicle control,[4]; 3.2 mg/kg,75.7%
CS(=O)(=O)Nc1ccc(-n2nc(C#N)cc2-c2ccc(S(C)(=O)=O)cc2)cc1 [Example 36],inhibition in vivo at 3.2 mg/kg,[1],84.2%
"CC(C)Cc1ccc(C(C)C(=O)O)cc1 (centres unmarked) [Ibuprofen, reference compound]",inhibition in vivo at 10 mg/kg,[1],24.7%
